# Experimental data taken from ChEMBL document CHEMBL1201862, “PubChem BioAssay data set” (2004).
#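 All cell lines were grown in 96-well plates and treated with compound for 48 hours. GI50 is the concentration that inhibits growth by half.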 The source made the active and inactive calls. Cut-off read from the data, not from the text of the source: active = GI50 up to about 1.1 µM and inactive = higher.
# Columns and labels:
# Assay in all cases: NCI anticancer screen, dose series, 48 h
# [1] = system: HOP-62
# [2] = system: CAKI-1
# [3] = system: A549
# [4] = system: BT-549
# [5] = system: SK-MEL-2
# [6] = system: K562
# [7] = system: Malme-3M
# [8] = system: HOP-92
# [9] = system: SNB-19
# [10] = system: SF-295
# [11] = system: 786-0
# [12] = system: NCI-H460
# [13] = system: SK-OV-3
# [14] = system: HL-60
# [15] = system: SK-MEL-5
# [16] = system: UACC-62
# [17] = system: UO-31
# [18] = system: RXF 393
# [19] = system: NCI-H522
SMILES,GI50 [1],GI50 [2],GI50 [3],GI50 [4],GI50 [5],GI50 [6],GI50 [7],GI50 [8],GI50 [9],GI50 [10],GI50 [11],GI50 [12],GI50 [13],GI50 [14],GI50 [15],GI50 [16],GI50 [17],GI50 [18],GI50 [19]
Nc1nc(O)c(N)c(NCCOCP(=O)(O)O)n1,> 100 µM (inactive),> 100 µM (inactive),> 100 µM (inactive),> 74.8 µM (inactive),> 100 µM (inactive),> 100 µM (inactive),> 100 µM (inactive),> 100 µM (inactive),> 100 µM (inactive),> 100 µM (inactive),> 100 µM (inactive),> 100 µM (inactive),> 100 µM (inactive),> 84.1 µM (inactive),> 100 µM (inactive),> 57.1 µM (inactive),> 100 µM (inactive),> 100 µM (inactive),
COC(=O)c1sc2c(=O)c(C(=O)OC)c(C(=O)OC)sc2c(=O)c1C(=O)OC,> 100 µM (inactive),> 100 µM (inactive),> 100 µM (inactive),> 100 µM (inactive),> 85.9 µM (inactive),43.2 µM (inactive),49 µM (inactive),> 100 µM (inactive),> 100 µM (inactive),> 100 µM (inactive),> 100 µM (inactive),> 100 µM (inactive),> 100 µM (inactive),,> 76 µM (inactive),> 100 µM (inactive),> 100 µM (inactive),> 100 µM (inactive),21.5 µM (inactive)
Cc1ccsc1/C=N/Nc1cc(C)c2ccccc2n1,22.3 µM (inactive),16.6 µM (inactive),9.55 µM (inactive),21 µM (inactive),17.9 µM (inactive),9.06 µM (inactive),,13.7 µM (inactive),16.6 µM (inactive),3.04 µM (inactive),16.3 µM (inactive),,17.3 µM (inactive),12.2 µM (inactive),2.17 µM (inactive),12.5 µM (inactive),10.4 µM (inactive),20.7 µM (inactive),
Cc1cn(CC2=NCCCN2)c(=O)[nH]c1=O,> 100 µM (inactive),,> 100 µM (inactive),> 100 µM (inactive),> 100 µM (inactive),> 100 µM (inactive),> 100 µM (inactive),> 100 µM (inactive),> 100 µM (inactive),> 100 µM (inactive),> 100 µM (inactive),> 100 µM (inactive),> 100 µM (inactive),,> 100 µM (inactive),> 100 µM (inactive),> 100 µM (inactive),> 100 µM (inactive),> 100 µM (inactive)
COC1C(O)C(O[C@H]2CC[C@@]3(C)C(CC[C@@H]4[C@@H]3CC[C@]3(C)[C@@H](C(C)OC5OC(CO)C(O)C(O)C5O)CC[C@]43O)C2)OC(C)C1OC1OC(CO)C(O)C(O)C1O (stereo partly drawn),> 100 µM (inactive),> 100 µM (inactive),> 100 µM (inactive),> 100 µM (inactive),> 100 µM (inactive),> 100 µM (inactive),> 100 µM (inactive),> 100 µM (inactive),> 100 µM (inactive),> 100 µM (inactive),> 100 µM (inactive),> 100 µM (inactive),> 100 µM (inactive),,> 100 µM (inactive),> 100 µM (inactive),> 100 µM (inactive),> 100 µM (inactive),> 100 µM (inactive)
COc1ccc(C2c3cc4c(cc3OC(N3CCOCC3)C2C)OCO4)cc1 (stereo not drawn),22.5 µM (inactive),19.3 µM (inactive),23.2 µM (inactive),20.3 µM (inactive),22.4 µM (inactive),12.8 µM (inactive),7.38 µM (inactive),4.14 µM (inactive),27.9 µM (inactive),15.1 µM (inactive),23.8 µM (inactive),26.1 µM (inactive),,21.1 µM (inactive),22.6 µM (inactive),27.6 µM (inactive),19.9 µM (inactive),19.1 µM (inactive),30 µM (inactive)
CCOC(=O)CSC1NC(C(=O)OC)CC1OC (stereo not drawn),> 100 µM (inactive),> 100 µM (inactive),> 100 µM (inactive),> 100 µM (inactive),> 100 µM (inactive),> 100 µM (inactive),> 100 µM (inactive),> 100 µM (inactive),> 100 µM (inactive),> 100 µM (inactive),> 100 µM (inactive),67.6 µM (inactive),> 100 µM (inactive),,> 100 µM (inactive),> 100 µM (inactive),> 100 µM (inactive),> 100 µM (inactive),> 100 µM (inactive)
C[C@@H]1[C@H](O)CC2=C(CC[C@@H](O)C2(C)C)[C@@]1(CO)CCc1ccoc1,> 50 µM (inactive),> 50 µM (inactive),> 50 µM (inactive),> 50 µM (inactive),> 50 µM (inactive),> 50 µM (inactive),> 50 µM (inactive),> 50 µM (inactive),> 50 µM (inactive),> 50 µM (inactive),> 50 µM (inactive),> 50 µM (inactive),> 50 µM (inactive),15.8 µM (inactive),> 50 µM (inactive),> 50 µM (inactive),> 50 µM (inactive),> 50 µM (inactive),
COc1ccc(-c2cc(-c3ccc(O)cc3O)c(C#N)c(=O)[nH]2)cc1,17.9 µM (inactive),23.8 µM (inactive),23.4 µM (inactive),23.6 µM (inactive),,25.2 µM (inactive),23.1 µM (inactive),12.6 µM (inactive),21.9 µM (inactive),15.7 µM (inactive),18.5 µM (inactive),23.1 µM (inactive),16.1 µM (inactive),29.7 µM (inactive),15.5 µM (inactive),15.8 µM (inactive),34.4 µM (inactive),15.9 µM (inactive),
COC(=O)[C@H](Cc1c[nH]c2ccccc12)NC(=O)c1ccc(CNC(=O)/C(C)=C/c2ccccc2)cc1,92.5 µM (inactive),> 100 µM (inactive),75.7 µM (inactive),28.1 µM (inactive),12.4 µM (inactive),> 100 µM (inactive),13 µM (inactive),16 µM (inactive),> 100 µM (inactive),60.1 µM (inactive),> 100 µM (inactive),27.9 µM (inactive),> 100 µM (inactive),,17.4 µM (inactive),20.9 µM (inactive),63.7 µM (inactive),< 0.01 µM (active),14.6 µM (inactive)
O=C(NCCCCNCCCNC(=O)c1ccccc1)c1ccccc1,> 100 µM (inactive),,> 100 µM (inactive),> 100 µM (inactive),> 100 µM (inactive),> 100 µM (inactive),,> 100 µM (inactive),> 100 µM (inactive),> 100 µM (inactive),> 100 µM (inactive),> 100 µM (inactive),> 100 µM (inactive),> 100 µM (inactive),> 100 µM (inactive),> 100 µM (inactive),> 100 µM (inactive),> 100 µM (inactive),> 100 µM (inactive)
